Assay results taken from PubChem BioAssay (NCI).
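Step 1: Grow cells in 96-well plates. Step 2: Expose to compound for 48 hours at 5 concentrations. Step 3: Interpolate endpoints linearly; if unreached, use highest concentration. Abbreviation: GI50, concentration required for 50% inhibition of growth. The concentration for full growth arrest is given as TGI.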

What was measured:
Test in all cases: growth of human tumour cells (NCI), 48 h
RXF 393 renal = tested on: RXF 393 renal
SK-MEL-2 melanoma = tested on: SK-MEL-2 melanoma
NCI-H522 lung = tested on: NCI-H522 lung
SW-620 colon = tested on: SW-620 colon
OVCAR-8 ovarian = tested on: OVCAR-8 ovarian
U251 CNS = tested on: U251 CNS
SN12C renal = tested on: SN12C renal
SNB-19 CNS = tested on: SNB-19 CNS
SR leukemia = tested on: SR leukemia
T-47D breast = tested on: T-47D breast

| SMILES | TGI (RXF 393 renal) | TGI (SK-MEL-2 melanoma) | TGI (NCI-H522 lung) | TGI (SW-620 colon) | TGI (OVCAR-8 ovarian) | TGI (U251 CNS) | TGI (SN12C renal) | TGI (SNB-19 CNS) | TGI (SR leukemia) | TGI (T-47D breast) | GI50 (RXF 393 renal) | GI50 (SR leukemia) | GI50 (SW-620 colon) | GI50 (OVCAR-8 ovarian) | GI50 (U251 CNS) | GI50 (SN12C renal) | GI50 (T-47D breast) | GI50 (SNB-19 CNS) | GI50 (NCI-H522 lung) |
| --- | --- | --- | --- | --- | --- | --- | --- | --- | --- | --- | --- | --- | --- | --- | --- | --- | --- | --- | --- |
| CCCCOc1ccc(OCCCCCCCCCC[N+](C)(C)C)cc1 | 3.34 µM | 5 µM | 5.22 µM | 14.9 µM | 22 µM | 9.16 µM | 12.2 µM | 23.3 µM |  |  |  |  |  |  |  |  |  |  |  |
| CCC(O)(Cc1ccc(OC)cc1)c1ccc(OC)cc1 (centres undefined) | > 100 µM | > 100 µM | > 100 µM | > 100 µM | > 100 µM | > 100 µM | > 100 µM | > 100 µM | > 100 µM |  |  |  |  |  |  |  |  |  |  |
| C=C(C)OCOCCOC |  | > 100 µM | > 100 µM | > 100 µM | > 100 µM | > 100 µM | > 100 µM | > 100 µM | > 100 µM | > 100 µM |  |  |  |  |  |  |  |  |  |
| Cn1c(=O)c(-c2ccccc2)c(O)c2ccccc21 | > 100 µM |  | > 100 µM | > 100 µM | > 100 µM | > 100 µM | > 100 µM | > 100 µM | > 100 µM |  |  |  |  |  |  |  |  |  |  |
| C/C(Cl)=N\OC(=O)Nc1ccc(C)cc1 |  | 33.1 µM |  | 33 µM | 32.4 µM | 29.9 µM | 33.7 µM | > 100 µM |  | 48.2 µM |  |  |  |  |  |  |  |  |  |
| CN(C)CCNC(=O)c1cc(Cl)cc2ccc(-c3ccccc3)nc12 | 14.3 µM | 17.1 µM | 16 µM | 13.4 µM | 13.2 µM | 15.3 µM | 12.9 µM | 18.8 µM |  |  |  |  |  |  |  |  |  |  |  |
| Cc1ccc(C(=O)N/N=C(\N=Nc2ccccc2)c2ccc(N(C)C)cc2)cc1 |  | > 100 µM | > 100 µM | > 100 µM | > 100 µM | > 100 µM | > 100 µM | > 100 µM | > 100 µM |  |  |  |  |  |  |  |  |  |  |
| COc1cc(-c2n/c(=C\c3c(O)[nH]c4ccc(Cl)cc34)cc3c2=Nc2ccccc2-3)ccc1F | 3.29 µM |  |  | 2.94 µM | 5.19 µM | 3.06 µM | 3.6 µM | 4.11 µM | 4.76 µM | 3.5 µM | 1.71 µM | 1.08 µM | 1.33 µM | 2.03 µM | 1.58 µM | 1.78 µM | 1.5 µM | 1.87 µM |  |
| N#C/C(=C/n1c(=S)[nH]c2ccc([N+](=O)[O-])cc21)C(N)=O | > 100 µM | > 100 µM |  | > 100 µM | > 100 µM | > 100 µM | > 100 µM | > 100 µM | > 100 µM |  |  |  |  |  |  |  |  |  |  |
| O=c1cc(-c2ccncc2)[nH]c2cc3c(cc12)OCO3 | > 100 µM | > 100 µM |  | > 100 µM | > 100 µM | > 100 µM | > 100 µM | > 100 µM |  | > 100 µM |  |  |  |  |  |  |  |  |  |
| CS(=O)(=O)CSCSSCS(C)(=O)=O | 36.1 µM | 46.7 µM | 34 µM | 34.3 µM | > 100 µM | > 100 µM | > 93.3 µM | > 100 µM | > 91.8 µM |  |  |  |  |  |  |  |  |  |  |
| O=S(=O)(O)c1ccc(N=Nc2ccc(N=Nc3ccc(/C=C/c4ccc(N=[N+]([O-])c5ccc(/C=C/c6ccc(N=Nc7ccc(N=Nc8ccc(S(=O)(=O)O)cc8)cc7)cc6S(=O)(=O)O)c(S(=O)(=O)O)c5)cc4S(=O)(=O)O)c(S(=O)(=O)O)c3)cc2)cc1 | > 100 µM | > 100 µM | > 100 µM | > 100 µM | > 100 µM | > 100 µM | > 100 µM | > 100 µM |  |  |  |  |  |  |  |  |  |  |  |
| CC(C)c1cccc(C(C)C)c1NC(=O)/C(CC(=O)CC(c1ccccc1)c1c(O)c2ccccc2oc1=O)=N/O (centres undefined) | > 100 µM | > 100 µM | > 100 µM | > 100 µM | > 100 µM | > 100 µM | > 100 µM | > 100 µM |  | > 100 µM |  |  |  |  |  |  |  |  |  |
| CN1C(=O)N(C)C(O)C(Cl)(Br)C1=O (centres undefined) | > 100 µM | > 100 µM | > 100 µM | > 100 µM | > 100 µM | > 100 µM | > 100 µM | > 100 µM | > 100 µM |  |  |  |  |  |  |  |  |  |  |
| CCOC(=O)C1(C#N)C(c2ccccc2)CC(O)(c2ccc(Cl)cc2)C(C(=O)c2ccc(Cl)cc2)C1c1ccccc1 (centres undefined) | > 100 µM | > 100 µM | > 100 µM | > 100 µM | > 100 µM |  | > 100 µM | 90.8 µM | > 100 µM |  |  |  |  |  |  |  |  |  |  |
| CN(C)c1ccc(/C=C(\NC(=O)c2ccccc2)c2nn(C)c(=O)o2)cc1 | > 100 µM | > 100 µM | 47 µM | > 100 µM | 82.9 µM | 54.3 µM | > 100 µM | 80 µM |  | > 100 µM |  |  |  |  |  |  |  |  |  |
| CSc1cc(=O)n2c3ccccc3c3ccnc1c32 | > 100 µM | > 100 µM | > 100 µM | > 100 µM | > 100 µM | > 100 µM | > 100 µM | > 100 µM |  |  |  |  |  |  |  |  |  |  |  |
| COC(=O)C1=C(C(=O)OC)SC(=CC#CC=C2SC(C(=O)OC)=C(C(=O)OC)S2)S1 |  | 64.3 µM | 54.8 µM | > 52 µM | 20.8 µM | 33.1 µM | > 52.5 µM | 26.2 µM | > 100 µM |  |  |  |  |  |  |  |  |  |  |
| COc1cc2cc(C(=O)N3C[C@H](CCl)c4c3cc(N)c3ccccc43)[nH]c2c(OC)c1OC |  |  | < 0.005 µM | > 50 µM | > 50 µM | > 50 µM | 0.0582 µM | 1.24 µM | > 50 µM | < 0.005 µM |  | 0.005 µM | 0.005 µM |  | 0.005 µM | 0.00698 µM |  | 0.0252 µM | < 0.005 µM |
| CCP(=O)(OC)C1=CCN(C(=O)OCC[Si](C)(C)C)CC1 (centres undefined) | > 100 µM | > 100 µM | > 100 µM | > 100 µM | > 100 µM | > 100 µM |  | > 100 µM |  | > 100 µM |  |  |  |  |  |  |  |  |  |
| COc1ccc(OC2OC(CO)C(OCc3ccccc3)C(OCc3ccccc3)C2OCc2ccccc2)cc1 (centres undefined) |  | > 100 µM | > 100 µM | > 100 µM | > 100 µM | > 100 µM | > 100 µM | > 100 µM | > 100 µM | > 100 µM |  |  |  |  |  |  |  |  |  |
| O=C1C=CC=C/C1=C1\N=C(c2ccccc2OCC(=O)c2ccccc2)SS1 | > 100 µM | > 100 µM |  | > 100 µM | > 100 µM | > 100 µM | > 100 µM | > 100 µM |  |  |  |  |  |  |  |  |  |  |  |
| O=C(O)c1cccc2cccc(-c3cccc4cccc(C(=O)O)c34)c12 | > 100 µM | > 100 µM | > 100 µM | > 100 µM | > 100 µM | > 100 µM | > 100 µM | > 100 µM |  | > 100 µM |  |  |  |  |  |  |  |  |  |
